Like-named read-outs stand apart in the source and are kept apart here.
Columns and labels:
Assay type in all cases: physicochemical
[1] = acid dissociation of the indicator in its electronic ground state (pKa); settings: for pKa acidic form (AH) in ground state: indicator acid AH; for pKa acidic form (BH^+) in ground state: indicator base, conjugate acid BH^+
From the text: Ka acid constant (dissociation equilibrium
pK value of an acid or conjugate acid
The pKa value of the electronically non-excited acid (AH or BH^+) is in the relevant measuring range.

[2] = acid dissociation of the indicator in its electronically excited state (pKa *); settings: for pKa * value in the excited state exceeds the pKa value in the ground state by: increase
From the text: S and .tau.B of the acidic forms (AH*, BH^+*) and basic forms (S^-*, B*) of the indicator differ from each other. In both fundamental instances the measured luminescence decay time .tau. is a function of the luminescence decay times .tau.B and .tau.S, their weighting depending on the pH prevailing in the sample.
The pKa * value of the electronically excited acid (AH* or BH^+*) is in the relevant measuring range.

[3] = luminescence decay time of the acidic and basic forms of the indicator in the excited state; settings: for luminescence decay time excited state .tau.(AH*): excited acid AH*; for luminescence decay time excited state .tau.(A-*): excited conjugate base A^-*; for luminescence decay time excited state .tau.(B*): excited base B*; for luminescence decay time excited state .tau.(BH+*): excited conjugate acid BH^+*
Experimental: .tau. lifetime of the excited state (luminescence
(§1) In an embodiment of the invention referring to item 1, the indicator is immobilized on a solid substrate, for example, and is brought into contact with the sample. […] After separation of the exciting light by means of a cut-off filter, fluorescence is detected over a broad band of the spectrum (for instance, by means of a photomultiplier or a pin photodiode) and decay time is measured electronically. As dissociation takes place in the ground state, both the absorption spectrum and the fluorescence spectrum are modified, which will have no negative effect on the measurement, however, due to the broad-band character of excitation and detection, or rather, due to the choice of the excitation wavelength in the overlap region of the absorption spectra and the broad detection band. Via a stored calibrating function the recorded decay times may be converted into pH values by a computer.
(§2) In an embodiment of the invention referring to item 2, a suitable indicator is immobilized on a solid substrate, and is dipped into the sample. Excitation takes place monochromatically with the use of a short-time light source (e.g., a coaxial flashlamp) and a color filter tuned to the absorption wavelength of the indicator (e.g., an interference filter). After separation of the exciting light by means of a cut-off filter, emission is detected over a broad band of the spectrum (for instance, by means of a photomultiplier or a pin photodiode). The pH value again is determined from the measured decay time via a stored calibrating function.

[4] = excitation/emission maxima of the acidic and basic forms of the indicator; settings: for emission maximum acidic form / excitation maximum acidic form: AH; for emission maximum conjugate basic form / excitation maximum conjugate basic form: A^-; for emission maximum basic form / excitation maximum basic form: B; for emission maximum conjugate acidic form / excitation maximum conjugate acidic form: BH^+
Experimental: as §1, §2

[5] = pH measuring range of the indicator via luminescence decay time
Experimental: as §1, §2

[6] = excited vs ground state, decrease

Row | pKa acidic form (AH) in ground state [1] | luminescence decay time excited state .tau.(AH*) [3] | luminescence decay time excited state .tau.(A-*) [3] | emission maximum acidic form [4] | excitation maximum acidic form [4] | emission maximum conjugate basic form [4] | excitation maximum conjugate basic form [4] | pKa * value in the excited state is lower than the pKa value in the ground state by [2] | SMILES | pKa * value in the excited state is lower than the pKa value in the ground state by [2, 6] | measuring range [5] | pKa acidic form (BH^+) in ground state [1] | pKa * value in the excited state exceeds the pKa value in the ground state by ([2]; excited vs ground state) | luminescence decay time excited state .tau.(B*) [3] | luminescence decay time excited state .tau.(BH+*) [3] | emission maximum basic form [4] | excitation maximum basic form [4] | emission maximum conjugate acidic form [4] | excitation maximum conjugate acidic form [4]
1 | ~9.8 | 9.0 ns | 4.8 ns | 356 nm | 328 nm | 410 nm | 348 nm |  | Oc1ccc2ccccc2c1 [Example 2-naphthol, 2-naphthol] | 7 units | 1.2-4.3 pH |  |  |  |  |  |  |  | 
2 |  |  |  |  |  |  |  |  | O=c1c2ccccc2[nH]c2ccccc12 [9(10H)-acridone] |  | 0.5-2.5 pH | 0.02 | 1.7 units | 26 ns | 15 ns | 440 nm | 383 nm | 456 nm | 399 nm
3 | ~3 | 2.5 ns | 9.0 ns | 340 nm | 278 nm | 340 nm | 285 nm | approx. 2 units | O=C(O)Cc1c[nH]c2ccccc12 [3-indolylacetic acid] |  | 2-4 pH |  |  |  |  |  |  |  | 
4 |  |  |  |  |  |  |  |  | c1ccc2nc3ccccc3cc2c1 [Acridine] |  | 4.0-7.0 pH | 5.45 | 5.25 units | 14 ns | 33 ns | 430 nm | 356 nm | 475 nm | 356 nm

Row | SMILES | pKa acidic form (AH) in ground state [1] | luminescence decay time excited state .tau.(AH*) [3] | luminescence decay time excited state .tau.(A-*) [3] | emission maximum acidic form [4] | excitation maximum acidic form [4] | emission maximum conjugate basic form [4] | excitation maximum conjugate basic form [4] | pKa * value in the excited state is lower than the pKa value in the ground state by [2] | pKa * value in the excited state is lower than the pKa value in the ground state by [2, 6] | measuring range [5] | pKa acidic form (BH^+) in ground state [1] | pKa * value in the excited state exceeds the pKa value in the ground state by ([2]; excited vs ground state) | luminescence decay time excited state .tau.(B*) [3] | luminescence decay time excited state .tau.(BH+*) [3] | emission maximum basic form [4] | excitation maximum basic form [4] | emission maximum conjugate acidic form [4] | excitation maximum conjugate acidic form [4]
5 | O=Cc1ccccc1O [Salicylaldehyde] | ~8.5 | < 1 ns | ~3 ns | 525 nm | 327 nm | 400 nm | 380 nm |  | approx. 6.5 units | 7-10 pH |  |  |  |  |  |  |  | 
